# Laboratory results as given in patent US6335459B1, “Aryl carboxylic acid and aryl tetrazole derivatives as IP receptor modulators” (Syntex (U.S.A.) LLC, priority 1998, dated 2002).
# Where a name gives a salt, the structure may show the parent alone.
row,Structure (SMILES),melting point
1,"Cc1c(/C=C\COC(=O)N(c2ccccc2)c2ccccc2)cccc1OCC(=O)O [Example 8, Cis-[3-(3-Diphenylcarbamoyloxypropenyl)-2-methylphenoxy]acetic acid]",133.4 to 135.5 °C
2,"O=C(O)COc1cccc(/C=C\COC(=O)N(c2ccccc2)c2ccccc2)c1 (as salt: salt) [Example 9, Cis-[3-(3-Diphenylcarbamoyloxypropenyl)phenoxy]acetic acid]",132.5 to 135 °C
3,"O=C(O)COc1cccc(COC(=O)N(c2ccccc2)c2ccccc2)c1Cl [Example 1, {2-Chloro-3-[(diphenylcarbamoyloxy)methyl]phenoxy}acetic acid]",182.2 to 182.9 °C
4,"O=C(O)COc1cccc(/C=C/COC(=O)N(c2ccccc2)c2ccccc2)c1 [Example 6, Trans-[3-(3-Diphenylcarbamoyloxypropenyl)phenoxy}acetic acid]",112.4 to 113.7 °C
5,"O=C(O)COc1cccc(COC(=O)N(c2ccccc2)c2ccccc2)c1 [Example 4, {3-[(Diphenylcarbamoyloxy)methyl]phenoxy}acetic acid]",142.2 to 143.8 °C
6,"O=C(O)Cc1cccc(CCCCCOC(=O)N(c2ccccc2)c2ccccc2)c1 [Example 12, [3-(5-diphenylcarbamoyloxypentyl)phenyl]acetic acid]",128.1 to 128.7 °C
7,"O=C(O)Cc1cccc(CCOC(=O)N(c2ccccc2)c2ccccc2)c1 [Example 12, [3-(2-diphenylcarbamoyloxyethyl)phenyl]acetic acid]",123 to 123.3 °C
8,"Cc1c(COC(=O)N(c2ccccc2)c2ccccc2)cccc1OCC(=O)O [Example 2, {3-[(Diphenylcarbamoyloxy)methyl]-2-methylphenoxy}acetic acid]",180.1 to 180.7 °C
9,"O=C(O)Cc1cccc(CCCCCCOC(=O)N(c2ccccc2)c2ccccc2)c1 [Example 12, [3-(6-diphenylcarbamoyloxyhexyl)phenyl]acetic acid]",99.8 to 101.7 °C
10,"O=C(O)CCc1cccc(/C=C\COC(=O)N(c2ccccc2)c2ccccc2)c1 (as salt: salt) [Example 13, cis-3-[3-(3-Diphenylcarbamoyloxypropenyl)phenyl]propionic acid]",131.8 to 132.4 °C
11,"Cc1c(CCCOC(=O)N(c2ccccc2)c2ccccc2)cccc1CC(=O)O [Example 12, [3-(3-diphenylcarbamoyloxypropyl)-2-methylphenyl]acetic acid]",128.7 to 129.2 °C
12,"O=C(O)Cc1cccc(CCCCOC(=O)N(c2ccccc2)c2ccccc2)c1 [Example 12, [3-(4-diphenylcarbamoyloxybutyl)phenyl]acetic acid]",117.8 to 119.6 °C

# More lines, now with the values ahead:
row,melting point,Structure (SMILES)
1,151.2 to 153.1 °C,"CC(C)(C)N.O=C(O)Cc1cccc(/C=C\CCOC(=O)N(c2ccccc2)c2ccccc2)c1 [Example 14A, cis-[3-(4-diphenylcarbamoyloxybut-1-enyl)phenyl]acetic acid tert-butylamine salt]"
2,172.8 to 176.8 °C,"CC(C)(C)N.O=C(O)c1cccc(/C=C\CCOC(=O)N(c2ccccc2)c2ccccc2)c1 [Example 14B, cis-3-(4-diphenylcarbamoyloxybut-1-enyl)benzoic acid tert-butylamine salt]"
3,107 to 108.5 °C,"O=C(O)COc1cccc(/C=C\COC(=O)N(Cc2ccccc2)c2ccccc2)c1 (as salt: salt) [Example 10B, cis-{3-[3-(benzylphenylcarbamoyloxypropenyl)phenoxy]acetic acid tert-butylamine salt]"
4,56.3 to 56.7 °C,"O=C(O)CCCCOc1cccc(/C=C\COC(=O)N(c2ccccc2)c2ccccc2)c1 [Example 10A, cis-5-[3-(3-diphenylcarbamoyloxypropenyl)phenoxy]pentanoic acid]"
5,180.5 to 184 °C,"CC(C)(C)N.O=C(O)c1cccc(/C=C\COC(=O)N(c2ccccc2)c2ccccc2)c1 [Example 14B, cis-3-(3-diphenylcarbamoyloxypropenyl)benzoic acid tert-butylamine salt]"
6,87 to 88.5 °C,"CC(C)(C)N.O=C(O)COc1cccc(/C=C\CCCCOC(=O)N(c2ccccc2)c2ccccc2)c1 [Example 10A, cis-[3-(6-diphenylcarbamoyloxyhex-1-enyl)phenoxy]acetic acid tert-butylamine salt]"
7,102 to 106 °C,"CC(C)(C)N.O=C(O)CCCOc1cccc(/C=C\COC(=O)N(c2ccccc2)c2ccccc2)c1 [Example 10A, cis-4-[3-(3-diphenylcarbamoyloxypropenyl)phenoxy]butyric acid tert-butylamine salt]"
8,112.3 to 113.1 °C,"CC(C)(C)N.CC(CCc1cccc(CC(=O)O)c1)OC(=O)N(c1ccccc1)c1ccccc1 (stereo not drawn) [Example 14C, [3-(3-diphenylcarbamoyloxybutyl)phenyl]acetic acid tert-butylamine salt]"
9,112.5 to 112.8 °C,"O=C(O)COc1cccc(/C=C\CCOC(=O)N(c2ccccc2)c2ccccc2)c1 (as salt: salt) [Example 10A, cis-[3-(4-diphenylcarbamoyloxybut-1-enyl)phenoxy]acetic acid tert-butylamine salt]"
